Measured values: US11014911B2, “CDK2 inhibitors” (Pfizer Inc., priority 2019, dated 2021)

Columns and labels:
[1] = biological target: CDK2/Cyclin E1 full length (Homo sapiens (Human), UniProt P24941); assay: CDK2/Cyclin E1 full length mobility shift assay; format: biochemical
GSK3β (H350L) = GSK3β (H350L) (Homo sapiens (Human), UniProt P49841); conditions: read-out: GSK3β Ki
GSK3β (H350L), sequence (P49841 whole entry, stated change not applied): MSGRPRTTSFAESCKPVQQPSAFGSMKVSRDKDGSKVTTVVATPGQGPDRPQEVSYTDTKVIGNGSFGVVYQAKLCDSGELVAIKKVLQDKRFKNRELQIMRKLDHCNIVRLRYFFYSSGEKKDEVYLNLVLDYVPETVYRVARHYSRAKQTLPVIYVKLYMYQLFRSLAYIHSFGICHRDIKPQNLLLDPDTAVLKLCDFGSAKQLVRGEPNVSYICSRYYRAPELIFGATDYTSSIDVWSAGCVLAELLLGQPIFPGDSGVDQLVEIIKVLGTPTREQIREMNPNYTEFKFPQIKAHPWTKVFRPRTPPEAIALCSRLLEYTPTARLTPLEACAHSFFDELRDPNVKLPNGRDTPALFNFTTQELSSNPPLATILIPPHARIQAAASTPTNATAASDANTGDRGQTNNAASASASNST
Experimental: The assay was initiated with the addition of ATP, following 15 minutes pre-incubation of enzyme and inhibitor at room temperature in the reaction mixture. The reaction was stopped after 30 minutes at room temperature by the addition of 50 μL of 80 mM EDTA.

In the case of `Cn1cc(CC(=O)Nc2cc([C@H]3CC[C@@H](OC(=O)NCCC(F)(F)F)C3)[nH]n2)cn1` [Example 216, (1R,3S)-3-(3-{[(1-methyl-1H-pyrazol-4-yl)acetyl]amino}-1H-pyrazol-5-yl)cyclopentyl (3,3,3-trifluoropropyl)carbamate], the Ki [1] is reported as 0.86 nM and the Ki (GSK3β (H350L)) is reported as 28.2 nM.

In the case of `COc1ncc(CC(=O)Nc2cc([C@H]3CC[C@@H](OC(=O)N4CCOC[C@@H]4C)C3)[nH]n2)s1` [Example 646, (1R,3S)-3-(3-{[(2-methoxy-1,3-thiazol-5-yl)acetyl]amino}-1H-pyrazol-5-yl)cyclopentyl (3S)-3-methylmorpholine-4-carboxylate], the Ki [1] is reported as 1.03 nM and the Ki (GSK3β (H350L)) is reported as 5.18 nM.

In the case of `CC[C@H](C)NC(=O)O[C@@H]1CC[C@H](c2cc(NC(=O)Cc3ccc(COC)cc3S(C)(=O)=O)[nH]n2)C1` [Example 376, (1R,3S)-3-[5-({[4-(methoxymethyl)-2-(methylsulfonyl)phenyl]acetyl}amino)-1H-pyrazol-3-yl]cyclopentyl (2S)-butan-2-ylcarbamate], the Ki [1] is reported as 0.4 nM and the Ki (GSK3β (H350L)) is reported as 99.3 nM.

In the case of `Cc1ncc(CC(=O)Nc2cc([C@H]3CC[C@@H](OC(=O)N4CCC[C@@H]4C)C3)[nH]n2)s1` [Example 139], the Ki [1] is reported as 0.21 nM and the Ki (GSK3β (H350L)) is reported as 8.48 nM.

Work on `CC[C@H](C)NC(=O)O[C@@H]1CC[C@H](c2cc(NC(=O)Cc3cncn3C)n[nH]2)C1` [Example 329, (1R,3S)-3-(3-{[(1-methyl-1H-imidazol-5-yl)acetyl]amino}-1H-pyrazol-5-yl)cyclopentyl (2S)-butan-2-ylcarbamate] yielded a Ki [1] of 1.02 nM and a Ki (GSK3β (H350L)) of 107 nM.

`Cc1ccc(CC(=O)Nc2cc([C@@H]3CC[C@H](OC(=O)N[C@H]4CC[C@@H](O)CC4)C3)[nH]n2)nc1` [Example 546, (1S,3R)-3-(3-{[(5-methylpyridin-2-yl)acetyl]amino}-1H-pyrazol-5-yl)cyclopentyl (cis-4-hydroxycyclohexyl)carbamate] showed a Ki [1] of 1.85 nM and a Ki (GSK3β (H350L)) of 3.51 nM.

With `O=C(Cc1cc(F)cc(F)c1)Nc1cc([C@@H]2CC[C@H](OC(=O)N[C@H]3CC[C@@H](O)CC3)C2)[nH]n1` [Example 27] the Ki [1] was 0.24 nM and the Ki (GSK3β (H350L)) was 3.57 nM.

For `CC[C@H](C)NC(=O)O[C@@H]1CC[C@H](c2cc(NC(=O)Cc3ccccc3S(=O)(=O)CC)n[nH]2)C1` [Example 40], the Ki [1] was 0.24 nM and the Ki (GSK3β (H350L)) was 64.5 nM.

`CCNC(=O)O[C@@H]1CC[C@H](c2cc(NC(=O)Cc3ccc4c(cnn4C)c3)n[nH]2)C1` [Example 3, (1R,3S)-3-(3-{[(1-methyl-1H-indazol-5-yl)acetyl]amino}-1H-pyrazol-5-yl)cyclopentyl ethylcarbamate] showed a Ki [1] of 0.34 nM and a Ki (GSK3β (H350L)) of 10 nM.

`CCCNC(=O)O[C@@H]1CC[C@H](c2cc(NC(=O)Cc3ccnc(OC)c3)[nH]n2)C1` [Example 1, (1R,3S)-3-(3-{[(2-methoxypyridin-4-yl)acetyl]amino}-1H-pyrazol-5-yl)cyclopentyl propylcarbamate] was tested, and the Ki (GSK3β (H350L)) was 26.2 nM.

`C[C@H]1CCCN1C(=O)O[C@@H]1CC[C@H](c2cc(NC(=O)Cc3ccn(C)n3)n[nH]2)C1` [Example 631, (1R,3S)-3-(3-{[(1-methyl-1H-pyrazol-3-yl)acetyl]amino}-1H-pyrazol-5-yl)cyclopentyl (2S)-2-methylpyrrolidine-1-carboxylate] gave a Ki (GSK3β (H350L)) of 11.8 nM.

`COc1ccc(CC(=O)Nc2cc([C@@H]3CC[C@H](OC(=O)N4CCC4(C)C)C3)[nH]n2)cn1` [Example 145] was tested, and the Ki (GSK3β (H350L)) was 0.95 nM.

`CC[C@H](C)NC(=O)O[C@@H]1CC[C@H](c2cc(NC(=O)Cc3ccccc3S(C)(=O)=O)n[nH]2)C1` [Example 370, (1R,3S)-3-[3-({[2-(methylsulfonyl)phenyl]acetyl}amino)-1H-pyrazol-5-yl]cyclopentyl (2S)-butan-2-ylcarbamate] gave a Ki (GSK3β (H350L)) of 50.8 nM.

`C[C@H]1CCCN1C(=O)O[C@@H]1CC[C@H](c2cc(NC(=O)Cc3ccn(C)n3)n[nH]2)C1` [Example 140] gave a Ki (GSK3β (H350L)) of 15.3 nM.

With `CCCNC(=O)O[C@H]1CC[C@@H](c2cc(NC(=O)Cc3ccnc(OC)c3)n[nH]2)C1` [Example 19] the Ki (GSK3β (H350L)) was 20.8 nM.

`CC(CC(F)(F)F)NC(=O)O[C@@H]1CC[C@H](c2cc(NC(=O)Cc3ccon3)n[nH]2)C1` (single isomer, unassigned) [Example 63] gave a Ki [1] of 1.25 nM.
